What was measured:
[1] = biological target: T1, His-hSTING CTD (Homo sapiens, UniProt Q86WV6, H232R); experiment: Surface plasmon resonance; type: binding; settings: without 2′,3′-cGAMP competition; read-out: KD (SPR)
T1 construct: purchased Invivogen (USA) or Cayman Chemicals (USA)
Experimental: SPR was employed for binding measurements using the His-tagged hSTING^WT CDN domain. A GE Healthcare Biacore T200 was equipped with a Ni-NTA chip. […] The sensorgrams were analyzed using Biacore T200 Software 3.0 and steady state was measured at 4 s before injection stop, exported into Graphpad, and fit versus concentration using a one site specific binding model to calculate the apparent equilibrium dissociation constant (K D). Where appropriate, kinetics were measured using a 1:1 Langmuir binding model with R max set to local to obtain the association rate (K on), dissociation (K off)

[2] = biological target: T2, hSTING CTD (STING R232 variant) (Homo sapiens, UniProt Q86WV6, H232R); experiment: Microscale thermophoresis; type: binding; settings: Log inhibitor versus response fit
T2 construct: 6X-His tagged hSTING^WT, R232 variant, CTD protein was purchased; purchased Invivogen (USA) or Cayman Chemicals (USA)
T2 sequence (Q86WV6 153-340 H232R): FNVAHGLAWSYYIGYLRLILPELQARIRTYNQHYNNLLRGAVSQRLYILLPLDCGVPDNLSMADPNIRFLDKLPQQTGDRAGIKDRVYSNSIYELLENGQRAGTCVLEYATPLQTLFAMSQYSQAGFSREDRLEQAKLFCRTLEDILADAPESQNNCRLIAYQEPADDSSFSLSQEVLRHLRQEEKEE
Experimental: Small molecule affinities at subpicomolar concentrations are typically difficult to determine by MST due to the inability of the detector to measure differential movement of proteins when largely disproportionate ratios of protein to ligand are involved. […] Generally, an IC50 correlates well with a K D when a small molecule competes for binding with a natural substrate for a target protein.
The resulting mixture was centrifuged at 12,000 x RPM 10 min prior to use. […] The samples were run again at 30- and 45 min. Detection of the protein was performed using the blue detection channel with excitation power set to 100% and MST set to high allowing 3 s prior to MST on to check for initial fluorescence differences, 35 s for thermophoresis, and 3 s for regeneration after MST off. Analysis was performed using M.O. Affinity Analysis Software with difference between initial fluorescence measured in the first 5 s as compared with thermophoresis at 30 s at 16 different analyte concentrations ranging from 100 μM to 100 zM and exported into Graphpad Prism v.8 using a Log inhibitor versus response for parameter fit.

[3] = test system: hSTING oligomerization in HEK293S cells; experiment: Clear native PAGE of hSTING oligomerization in HEK293S cells; type: cell-based, human; settings: CXL 1 h, then 100 nM diABZI3 2 h
Experimental: To determine whether the results we observed in the DLS experiments could be recapitulated in cellulo, where full-length hSTING is present, we used HEK293T cells transfected with WT hSTING (referred to herein as HEK293S cells) to perform hSTING clear native PAGE experiments. […] Thus, HEK293S cells were harvested following treatment with 100 nM diABZI3 for 2 h, following a 1 h treatment of varying concentrations of CXL.
Invitrogen NativePAGE Sample Prep Kit Catalog number: BN2008, Invitrogen NativePAGE Running Buffer Kit Catalog number: BN2007 and Invitrogen NativePAGE 4 to 16%, Bis-Tris, 1.0 mm, Mini Protein Gels, 10 wells, (Cat. # BN1002BOX). Cells were harvested and CXL was added at varying concentrations for 1 h and followed by 2 h of diABZI3 at 100 nM. To the mammalian cells harvested in 1 mL cell culture, add 0.2 mL lysis buffer containing 10 mM HEPES, pH 7.5,150 mM NaCl, 5% glycerol, protease inhibitor cocktail, and 0.025% digitonin. Cells were lysed by sonicating for two rounds of 15 s each while cooling the sample on ice. Centrifuge the lysate at 20,000g for 10 min at 4 °C. Aliquot the supernatant into microcentrifuge tubes. To prepare the sample for loading a total volume of 20 μL NativePAGE including Sample Buffer (4×) 5 μLSTING supernatant, 14.5 μL and Ponceau S-dye: 0.5 μL. 1X NativePAGE Anode Buffer: Add 30 mL of 20X NativePAGE Running Buffer to 570 mL of deionized water. […]

[4] = test system: p-IRF3 in HEK293S cells (hSTING pathway); experiment: Phospho-IRF3 Western blot in HEK293S cells with diABZI3; type: cell-based, human; settings: 100 fM compound, 100 nM diABZI3, preliminary
Experimental: HEK293T cells transfected with hSTINGWT cells were seeded in a 6-well plate in DMEM
(supplemented with 10% heat-inactivated fetal bovine serum, 1X Corning Penicillin-Streptomycin
solution and 0.01mg/mL Blasticidin). Upon reaching ~80% confluence, cells were pretreated with
varying concentrations of CXL in FBS-free DMEM for 2 hours. This was followed by treatment
with diABZI3 (100nM) for 1 hour. The cells were scraped, harvested by centrifugation at 1000 x g
for 3 mins. The resulting pellet is resuspended in 1X PBS with 1X Halt protease & phosphatase
inhibitor and 1% NP-40. Cell lysis was performed by probe sonication. The cell lysate is further
denatured in 1X SDS loading buffer by boiling for 10 mins and separated by SDS-PAGE (4-20%
gel). The separated proteins were electrically transferred to a PVDF membranes separately,
which was probed with primary (α-pIRF3, α-IRF3 & α-STING) and secondary (goat anti-rabbit IR
dye 680 & goat anti-mouse IR dye 800CW) antibodies. The blots were visualized using a LICOR
Image Analyzer. All the experiments were performed at least in duplicate.

[5] = Hydrolysis of clonixeril to clonixin by HPLC; type: physicochemical
Experimental: To determine clonixeril’s hydrolytic stability and evaluate its potential as an oral drug, an aqueous solution was concentrated for analysis at 20 µM. The sample was analyzed by HPLC using an […]
The UV spectra of these peaks were compared by diode array and found to be identical with maximum absorbance at 280nm and 343nm. […]
the minor first peak matched the molecular weight of clonixin (M+H)+ and the second major peak matched the molecular weight of clonixeril (M+H)+. Data was generated by measuring the ratio between the two peaks. Hydrolysis of clonixeril to clonixin was measured by HPLC over seven days using a 20 µM aqueous solution.
96.8% clonixeril (Figure S4B). Most of the hydrolysis occurred within the first two days at an average rate of […], and then slowed down to an average rate of 0.07% per hour by day seven (Figure S4B). The rate decrease correlated with an observable decrease in solution pH as a product of hydrolysis. Further samples solubilized in pH 2.00 phosphoric acid and pH 1.99 hydrochloric acid confirmed that the rate decreases to an average of 0.014% per hour over […]
a seven-day period. […]

[6] = test system: hSTING CTD; experiment: Differential scanning fluorimetry (thermal shift); type: binding, human; settings: 200 μM
From the text: Differential Scanning Fluorimetry – Thermal Shift Experiment
screening process for their potential to stabilize the active form of the STING molecule by binding to it. A TSA measures a protein's melting temperature (Tm), at which the protein is 50% denatured. The assay quantifies protein denaturation by measuring the increase in fluorescence of a dye that binds to hydrophobic residues exposed by unfolding of the protein.
Differential Scanning Fluorimetry (Thermal Shift) for Binders of STING.
Compounds selected (57) from computational virtual screening for analysis at 200 μM in the thermal shift assay are
shown here as green dots with blue diamond indicating the temperature range of denaturation. The red box indicates

T1 sequence (Q86WV6 153-340 H232R): as above

Compound: Cc1c(Cl)cccc1Nc1ncccc1C(=O)OCC(O)CO (centres unmarked) [CXL, clonixeril]
- Kd [1]: 0.43 ± 0.14 µM
- Hillslope (MST fit) [2]: −1.669
- Effect on hSTING oligomerization [3]: reduces hSTING oligomerization at concentrations down to attomolar levels
- Effect on p-IRF3 [4]: potent antagonistic behavior
- Initial hydrolysis, clonixeril ([5]; 20 µM aqueous solution): 96.8%
- Initial hydrolysis, clonixin ([5]; 20 µM aqueous solution): 3.2%
- Initial hydrolysis, clonixeril ([5]; 5% sodium bicarbonate): 88.2%
- Initial hydrolysis, clonixin ([5]; 5% sodium bicarbonate): 11.8%
- Average rate of hydrolysis ([5]; aqueous solution, by day seven): 0.07 % per hour
- Average rate of hydrolysis ([5]; aqueous solution, first two days): 0.13 % per hour
- Average rate of hydrolysis ([5]; pH 2.00 phosphoric acid and pH 1.99 hydrochloric acid, seven-day period): 0.014 % per hour
- Hydrolysis ([5]; pH of 1.0): relatively slow hydrolysis
- Hydrolysis ([5]; pH=2.0): surprisingly slow
- Thermal shift [6]: negative thermal shift

Source: article PMC12203428, “Discovery of Clonixeril as a Sub-Femtomolar Modulator of the Human STING Receptor” (ACS Central Science, 2025)
